ChEMBL document CHEMBL1127914, “Pseudopeptide inhibitors of aminopeptidases containing the [CH(CN)NH] surrogate as a transition-state MIMIC” (Bioorg Med Chem Lett, 1994)
Residues, ends and D or L forms follow the SMILES beside them.

Experiments:
Aminopeptidase B [1] = biological target: T1, Aminopeptidase B (Mus musculus, UniProt Q8VCT3); assay: Inhibition of Aminopeptidase B in murine L-cells by Aoyagi method.
T1 sequence (Q8VCT3 whole entry): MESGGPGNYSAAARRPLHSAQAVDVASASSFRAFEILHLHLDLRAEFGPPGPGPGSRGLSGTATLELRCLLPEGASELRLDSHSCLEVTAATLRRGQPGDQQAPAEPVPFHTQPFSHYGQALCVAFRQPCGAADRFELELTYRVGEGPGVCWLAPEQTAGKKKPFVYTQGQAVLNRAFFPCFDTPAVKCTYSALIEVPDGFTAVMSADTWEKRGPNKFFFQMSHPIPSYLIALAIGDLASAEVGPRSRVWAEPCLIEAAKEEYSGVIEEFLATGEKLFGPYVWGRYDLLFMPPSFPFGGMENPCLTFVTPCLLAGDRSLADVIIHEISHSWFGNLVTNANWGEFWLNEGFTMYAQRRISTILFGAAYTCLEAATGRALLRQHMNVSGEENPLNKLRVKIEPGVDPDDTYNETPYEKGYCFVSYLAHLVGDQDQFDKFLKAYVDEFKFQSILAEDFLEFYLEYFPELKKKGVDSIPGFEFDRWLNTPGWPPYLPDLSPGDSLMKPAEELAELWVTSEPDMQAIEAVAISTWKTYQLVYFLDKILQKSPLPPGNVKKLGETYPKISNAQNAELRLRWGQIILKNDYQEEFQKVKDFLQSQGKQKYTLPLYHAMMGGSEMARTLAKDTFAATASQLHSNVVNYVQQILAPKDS

Aminopeptidase N [2] = biological target: T2, Aminopeptidase N (Homo sapiens, UniProt P15144); assay: Inhibition of Aminopeptidase M.
T2 sequence (P15144 whole entry): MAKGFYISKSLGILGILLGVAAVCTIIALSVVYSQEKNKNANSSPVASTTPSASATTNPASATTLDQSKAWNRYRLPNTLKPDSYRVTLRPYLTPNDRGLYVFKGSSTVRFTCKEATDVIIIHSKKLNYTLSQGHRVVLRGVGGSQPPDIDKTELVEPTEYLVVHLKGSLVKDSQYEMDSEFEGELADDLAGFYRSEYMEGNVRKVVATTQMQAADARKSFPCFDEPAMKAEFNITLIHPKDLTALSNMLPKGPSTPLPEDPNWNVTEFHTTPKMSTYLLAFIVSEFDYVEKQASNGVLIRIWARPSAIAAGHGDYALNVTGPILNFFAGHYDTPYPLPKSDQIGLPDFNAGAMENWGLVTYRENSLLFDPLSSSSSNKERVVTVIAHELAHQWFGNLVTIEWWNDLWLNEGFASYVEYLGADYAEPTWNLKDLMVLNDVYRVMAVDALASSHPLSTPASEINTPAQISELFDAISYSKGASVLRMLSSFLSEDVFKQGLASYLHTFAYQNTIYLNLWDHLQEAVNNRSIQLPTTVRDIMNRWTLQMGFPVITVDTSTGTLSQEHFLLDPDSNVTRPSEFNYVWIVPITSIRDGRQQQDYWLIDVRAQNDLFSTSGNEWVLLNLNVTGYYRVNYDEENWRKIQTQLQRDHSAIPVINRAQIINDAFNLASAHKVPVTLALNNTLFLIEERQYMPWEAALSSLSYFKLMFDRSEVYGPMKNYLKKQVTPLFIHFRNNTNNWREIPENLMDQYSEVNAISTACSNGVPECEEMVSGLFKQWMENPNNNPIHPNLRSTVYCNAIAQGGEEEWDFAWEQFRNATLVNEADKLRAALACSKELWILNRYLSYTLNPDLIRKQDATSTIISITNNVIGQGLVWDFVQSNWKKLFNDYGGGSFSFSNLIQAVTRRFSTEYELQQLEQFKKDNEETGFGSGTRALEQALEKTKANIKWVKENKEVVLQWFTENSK

Aminopeptidase B [3] = biological target: T1, Aminopeptidase B; assay: Concentration required for inhibitory potency against Aminopeptidase B in murine L-cells by aoyagi method using L-lysine-2-naphthylamide hydrochloride as substrate (0.5mM, Km=0.9*10e-4 M)
Aminopeptidase N [4] = biological target: T2, Aminopeptidase N; assay: Concentration required for inhibitory potency on Aminopeptidase M using L-leucine-2-naphthylamide hydrochloride as substrate(0.5 mM, Km=0.6*10e-4 M)

Structure (SMILES)	IC50 (Aminopeptidase B [1])	IC50 (Aminopeptidase N [2])	IC50 (Aminopeptidase B [3])	IC50 (Aminopeptidase N [4])
COC(=O)[C@H](CC(C)C)NC(C#N)[C@@H](N)Cc1ccccc1 (some centres not stated)	50 µM			
COC(=O)[C@H](Cc1ccccc1)N[C@H](C#N)[C@@H](N)Cc1ccccc1	293 µM			
COC(=O)[C@@H]1CCCN1C(=O)[C@H](CC(C)C)N[C@@H](C#N)[C@@H](N)Cc1ccccc1	28 µM			
COC(=O)[C@@H](NC(C#N)[C@H](Cc1ccccc1)NC(=O)OC(C)(C)C)C(C)C (some centres not stated)	1000 µM	1000 µM		
COC(=O)[C@@H](NC(C#N)[C@@H](N)Cc1ccccc1)C(C)C (some centres not stated)	36 µM			
COC(=O)[C@H](CCCCN)NC(C#N)[C@@H](N)Cc1ccccc1 (some centres not stated)	44 µM			
COC(=O)[C@H](Cc1ccccc1)N[C@@H](C#N)[C@@H](N)Cc1ccccc1	221 µM			
CC(C)C[C@H](NC(=O)[C@@H](N)Cc1ccccc1)C(=O)O (H-Phe-Leu-OH)	1000 µM	1000 µM		
COC(=O)[C@@H]1CCCN1C(=O)[C@H](CC(C)C)NC(=O)[C@@H](N)Cc1ccccc1 (H-Phe-Leu-Pro-OMe)	824 µM	793 µM		
COC(=O)[C@H](CC(C)C)NC(C#N)[C@H](Cc1ccccc1)NC(=O)OC(C)(C)C (mixture of isomers)	1000 µM	1000 µM		
COC(=O)[C@H](CCCCN)NC(C#N)[C@H](Cc1ccccc1)NC(=O)OC(C)(C)C (mixture of isomers)	1000 µM	1000 µM		
COC(=O)C1CCCN1C(=O)[C@H](CC(C)C)NC(C(N)=O)[C@@H](N)Cc1ccccc1 (single isomer, unassigned) [listing 1 of 2 here]	1000 µM	1000 µM		
COC(=O)C1CCCN1C(=O)[C@H](CC(C)C)NC(C(N)=O)[C@@H](N)Cc1ccccc1 (single isomer, unassigned) [listing 2 of 2 here]			1000 µM	783 µM
COC(=O)[C@H](CC(C)C)NC(C(N)=O)[C@@H](N)Cc1ccccc1 (single isomer, unassigned)	1000 µM	1000 µM		
COC(=O)C1CCCN1C(=O)[C@H](CC(C)C)NC(C#N)[C@@H](N)Cc1ccccc1 (single isomer, unassigned)	14 µM			
COC(=O)C1CCCN1C(=O)[C@H](CC(C)C)NC(C#N)[C@H](Cc1ccccc1)NC(=O)OC(C)(C)C (single isomer, unassigned; form 1)	1000 µM	1000 µM		
COC(=O)[C@H](Cc1ccccc1)NC(C#N)[C@H](Cc1ccccc1)NC(=O)OC(C)(C)C (single isomer, unassigned; form 1)	1000 µM	1000 µM		
COC(=O)C1CCCN1C(=O)[C@H](CC(C)C)NC(C#N)[C@H](Cc1ccccc1)NC(=O)OC(C)(C)C (single isomer, unassigned; form 2)	1000 µM	1000 µM		
COC(=O)[C@H](Cc1ccccc1)NC(C#N)[C@H](Cc1ccccc1)NC(=O)OC(C)(C)C (single isomer, unassigned; form 2)	1000 µM	1000 µM		
CC(C)C[C@H](NC(=O)[C@@H](O)[C@H](N)Cc1ccccc1)C(=O)O [UBENIMEX]	6 µM			
